Assay results as given in patent US20250275959A1, “COMPOUNDS AND METHODS OF THEIR USE” (LEXICON PHARMACEUTICALS, INC., priority 2024, published 2025).

Columns and labels:
[1] = target: T1, hACSL5 (Homo sapiens (Human), UniProt Q9ULC5); test: Human ACSL5 coupled enzyme Amplex Red assay; format: biochemical; conditions: read-out: hACSL5 IC50
How it was run: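 C-terminally His-tagged ACSL5 (33-683) from sf9 cells, 20 nM, was preincubated with compound in MOPS-NaOH pH 7.6 with MgCl2, peroxidase and acyl-CoA oxidase. Reactions were started with 25 μM oleate, 30 μM CoA, 1 mM ATP and 50 μM Amplex Red; fluorescence (535/590 nm) after 10 minutes at 25° C. was fitted to the Hill equation for IC50 and maximal inhibition.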
Target sequence in this assay (Q9ULC5 33-683): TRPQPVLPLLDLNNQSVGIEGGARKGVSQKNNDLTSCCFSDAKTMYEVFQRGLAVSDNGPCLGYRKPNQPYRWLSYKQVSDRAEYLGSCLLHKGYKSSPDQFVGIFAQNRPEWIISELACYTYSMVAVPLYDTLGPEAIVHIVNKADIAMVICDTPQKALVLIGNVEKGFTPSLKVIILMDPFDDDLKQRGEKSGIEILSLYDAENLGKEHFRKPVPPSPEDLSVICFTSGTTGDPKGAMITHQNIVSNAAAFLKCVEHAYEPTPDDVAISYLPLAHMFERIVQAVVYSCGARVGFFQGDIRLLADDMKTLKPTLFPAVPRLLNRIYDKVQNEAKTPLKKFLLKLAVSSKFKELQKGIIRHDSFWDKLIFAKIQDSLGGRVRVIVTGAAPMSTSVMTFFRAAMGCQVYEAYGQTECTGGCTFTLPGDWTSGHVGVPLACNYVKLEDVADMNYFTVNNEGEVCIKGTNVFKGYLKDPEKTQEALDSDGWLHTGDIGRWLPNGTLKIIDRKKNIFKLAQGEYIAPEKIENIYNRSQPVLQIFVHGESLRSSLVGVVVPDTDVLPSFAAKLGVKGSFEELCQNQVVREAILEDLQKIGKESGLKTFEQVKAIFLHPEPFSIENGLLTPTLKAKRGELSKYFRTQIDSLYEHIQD

[2] = target: T1, hACSL5; test: Cell-based assay (CBA) with B12FA in hACSL5-transfected Expi293F / FlpIn TRex293 cells; conditions: hACSL5-expressing cells
How it was run: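 hACSL5-expressing Expi293F or tetracycline-induced FlpIn TRex293 cells, serum- and glucose-starved 1 h, then treated 3 h with serially diluted compound plus 20 µM B12FA. After fixation, 630/520 nm emission ratio (ex 485 nm) gave % inhibition versus no-inhibitor and 10 µM compound/non-induced controls; IC50 by Hill fit.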
Target sequence in this assay (Q9ULC5 whole entry): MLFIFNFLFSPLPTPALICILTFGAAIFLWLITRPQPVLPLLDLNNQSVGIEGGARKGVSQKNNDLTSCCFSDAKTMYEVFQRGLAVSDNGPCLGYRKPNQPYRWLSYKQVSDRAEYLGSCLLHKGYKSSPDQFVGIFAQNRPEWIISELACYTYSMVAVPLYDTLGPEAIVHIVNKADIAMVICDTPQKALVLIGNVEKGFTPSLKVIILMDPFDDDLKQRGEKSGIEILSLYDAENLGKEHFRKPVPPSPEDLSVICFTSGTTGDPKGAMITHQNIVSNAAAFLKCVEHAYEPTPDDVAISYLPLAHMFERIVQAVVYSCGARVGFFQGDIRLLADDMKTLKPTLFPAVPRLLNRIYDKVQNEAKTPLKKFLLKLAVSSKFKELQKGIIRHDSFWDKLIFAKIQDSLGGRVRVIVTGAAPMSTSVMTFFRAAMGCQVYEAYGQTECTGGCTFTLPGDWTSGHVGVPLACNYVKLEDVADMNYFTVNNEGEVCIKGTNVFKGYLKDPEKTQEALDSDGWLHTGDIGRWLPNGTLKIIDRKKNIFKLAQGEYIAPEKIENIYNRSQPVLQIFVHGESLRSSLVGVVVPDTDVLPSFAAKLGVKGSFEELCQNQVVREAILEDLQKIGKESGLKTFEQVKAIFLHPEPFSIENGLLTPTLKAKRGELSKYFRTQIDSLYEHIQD

Row | SMILES | IC50 [1] [nM] | IC50 [2] [nM]
1 | CC[C@@H](Oc1ccc(C(=O)NS(=O)(=O)c2ccc(OCCN(C)C)cc2)c(F)c1F)c1ccc(OCCOC)cn1 [(R)-N-((4-(2-(dimethylamino)ethoxy)phenyl)sulfonyl)-2,3-difluoro-4-(1-(5-(2-methoxyethoxy)pyridin-2-yl)propoxy)benzamide] | 100 to 500 | > 500
2 | CC[C@@H](Oc1ccc(C(=O)NS(=O)(=O)N2CCN(C3CCCC3)CC2)c(F)c1F)c1ccc(OCC2CC2)cn1 [(R)-N-((4-cyclopentylpiperazin-1-yl)sulfonyl)-4-(1-(5-(cyclopropylmethoxy)pyridin-2-yl)propoxy)-2,3-difluorobenzamide] | < 100 | 100 to 500
3 | CC[C@@H](Oc1ccc(C(=O)NS(=O)(=O)N2CCN(C3CC3)CC2)c(F)c1F)c1cc(Oc2ccccn2)ccn1 [(R)-N-((4-cyclopropylpiperazin-1-yl)sulfonyl)-2,3-difluoro-4-(1-(4-(pyridin-2-yloxy)pyridin-2-yl)propoxy)benzamide] | < 100 | 100 to 500
4 | CC[C@@H](Oc1ccc(C(=O)NS(=O)(=O)N2CCN(C3CC3)CC2)c(F)c1F)c1ccc(Oc2ccccn2)cn1 [(R)-N-((4-cyclopropylpiperazin-1-yl)sulfonyl)-2,3-difluoro-4-(1-(5-(pyridin-2-yloxy)pyridin-2-yl)propoxy)benzamide] | < 100 | < 100
5 | CC[C@@H](Oc1ccc(C(=O)NS(=O)(=O)N2CCN(CC)CC2)c(F)c1F)c1ccc(Oc2ccccn2)cn1 [(R)-N-((4-ethylpiperazin-1-yl)sulfonyl)-2,3-difluoro-4-(1-(5-(pyridin-2-yloxy)pyridin-2-yl)propoxy)benzamide] | < 100 | < 100
6 | CC[C@@H](Oc1ccc(C(=O)NS(=O)(=O)N2CCN(CC)CC2)cc1C(F)(F)F)c1ccc(Oc2ccccn2)cn1 [(R)-N-((4-ethylpiperazin-1-yl)sulfonyl)-4-(1-(5-(pyridin-2-yloxy)pyridin-2-yl)propoxy)-3-(trifluoromethyl)benzamide] | < 100 | < 100
7 | CC[C@@H](Oc1ccc(C(=O)NS(=O)(=O)N2CCN(C)CC2)cc1C(F)(F)F)c1ccc(Oc2ccccn2)cn1 [(R)-N-((4-methylpiperazin-1-yl)sulfonyl)-4-(1-(5-(pyridin-2-yloxy)pyridin-2-yl)propoxy)-3-(trifluoromethyl)benzamide] | < 100 | < 100
8 | CCOc1ccc(C(C)Oc2ccc(C(=O)NS(=O)(=O)c3ccc(OCCn4ccnc4)cc3)c(F)c2F)nc1 (stereo not drawn) [N-((4-(2-(1H-imidazol-1-yl)ethoxy)phenyl)sulfonyl)-4-(1-(5-ethoxypyridin-2-yl)ethoxy)-2,3-difluorobenzamide] | 100 to 500 | > 500
9 | CC[C@@H](Oc1ccc(C(=O)NS(=O)(=O)c2ccc(OCCN(C)C)cc2)c(F)c1F)c1ccc(OC2CC(OC)C2)cn1 (stereo partly drawn) [N-((4-(2-(dimethylamino)ethoxy)phenyl)sulfonyl)-2,3-difluoro-4-((R)-1-(5-((1R,3R)-3-methoxycyclobutoxy)pyridin-2-yl)propoxy)benzamide] | < 100 | 100 to 500
10 | CC[C@@H](Oc1ccc(C(=O)NS(=O)(=O)c2ccc(OCCN(C)C)cc2)cc1C(F)(F)F)c1ccc(OC2CC(OC)C2)cn1 (stereo partly drawn) [N-((4-(2-(dimethylamino)ethoxy)phenyl)sulfonyl)-4-((R)-1-(5-((1R,3R)-3-methoxycyclobutoxy)pyridin-2-yl)propoxy)-3-(trifluoromethyl)benzamide] | 100 to 500 | 100 to 500
11 | CC[C@@H](Oc1ccc(C(=O)NS(=O)(=O)c2ccc(O[C@@H]3C[C@H]4C[C@@H]3CN4)cc2)c(F)c1F)c1ccc(OCC2CC2)cn1 [N-((4-(((1R,4R,5R)-2-azabicyclo[2.2.1]heptan-5-yl)oxy)phenyl)sulfonyl)-4-((R)-1-(5-(cyclopropylmethoxy)pyridin-2-yl)propoxy)-2,3-difluorobenzamide] | < 100 | > 500

The remaining lines, values ahead:

Row | IC50 [1] [nM] | IC50 [2] [nM] | SMILES
12 | < 100 | < 100 | CC[C@@H](Oc1ccc(C(=O)NS(=O)(=O)c2ccc(OCCNC3CC3)cc2)c(F)c1F)c1ccc(OCC2CC2)cn1 [(R)-N-((4-(2-(cyclopropylamino)ethoxy)phenyl)sulfonyl)-4-(1-(5-(cyclopropylmethoxy)pyridin-2-yl)propoxy)-2,3-difluorobenzamide]
13 | < 100 | 100 to 500 | CC[C@@H](Oc1ccc(C(=O)NS(=O)(=O)c2ccc(OCCN(C)C)cc2)c(F)c1F)c1cc(Oc2ccccn2)ccn1 [(R)-N-((4-(2-(dimethylamino)ethoxy)phenyl)sulfonyl)-2,3-difluoro-4-(1-(4-(pyridin-2-yloxy)pyridin-2-yl)propoxy)benzamide]
14 | < 100 | 100 to 500 | C[C@@H](Oc1ccc(C(=O)NS(=O)(=O)c2ccc(OCCN(C)C)cc2)c(F)c1F)c1ccc(Oc2ccccn2)cn1 [(R)-N-((4-(2-(dimethylamino)ethoxy)phenyl)sulfonyl)-2,3-difluoro-4-(1-(5-(pyridin-2-yloxy)pyridin-2-yl)ethoxy)benzamide]
15 | < 100 | 100 to 500 | CC[C@@H](Oc1ccc(C(=O)NS(=O)(=O)c2ccc(OCCN(C)C)cc2)c(F)c1F)c1ccc(Oc2ccccn2)cn1 [(R)-N-((4-(2-(dimethylamino)ethoxy)phenyl)sulfonyl)-2,3-difluoro-4-(1-(5-(pyridin-2-yloxy)pyridin-2-yl)propoxy)benzamide]
16 | < 100 | < 100 | C[C@@H](Oc1ccc(C(=O)NS(=O)(=O)c2ccc(OCCN(C)C)cc2)cc1C(F)(F)F)c1ccc(Oc2ccccn2)cn1 [(R)-N-((4-(2-(dimethylamino)ethoxy)phenyl)sulfonyl)-4-(1-(5-(pyridin-2-yloxy)pyridin-2-yl)ethoxy)-3-(trifluoromethyl)benzamide]
17 | < 100 | < 100 | CC[C@@H](Oc1ccc(C(=O)NS(=O)(=O)c2ccc(OCCN(C)C)cc2)cc1C(F)(F)F)c1ccc(Oc2ccccn2)cn1 [(R)-N-((4-(2-(dimethylamino)ethoxy)phenyl)sulfonyl)-4-(1-(5-(pyridin-2-yloxy)pyridin-2-yl)propoxy)-3-(trifluoromethyl)benzamide]
18 | < 100 | 100 to 500 | CC[C@@H](Oc1ccc(C(=O)NS(=O)(=O)c2ccc(OC34CCN(CC3)C4)cc2)c(F)c1F)c1ccc(OCC2CC2)cn1 [(R)-N-((4-((1-azabicyclo[2.2.1]heptan-4-yl)oxy)phenyl)sulfonyl)-4-(1-(5-(cyclopropylmethoxy)pyridin-2-yl)propoxy)-2,3-difluorobenzamide]
19 | < 100 | < 100 | C[C@@H](Oc1ccc(C(=O)NS(=O)(=O)N2CCC(OC3CCN(C)CC3)CC2)cc1C(F)(F)F)c1ccc(Oc2ccccn2)cn1 [(R)-N-((4-((1-methylpiperidin-4-yl)oxy)piperidin-1-yl)sulfonyl)-4-(1-(5-(pyridin-2-yloxy)pyridin-2-yl)ethoxy)-3-(trifluoromethyl)benzamide]
20 | < 100 | < 100 | CC[C@@H](Oc1ccc(C(=O)NS(=O)(=O)N2CCC(OC3CCN(C)CC3)CC2)cc1C(F)(F)F)c1ccc(Oc2ccccn2)cn1 [(R)-N-((4-((1-methylpiperidin-4-yl)oxy)piperidin-1-yl)sulfonyl)-4-(1-(5-(pyridin-2-yloxy)pyridin-2-yl)propoxy)-3-(trifluoromethyl)benzamide]
21 | < 100 | > 500 | CC[C@@H](Oc1ccc(C(=O)NS(=O)(=O)c2ccc(OCc3c[nH]cn3)cc2)c(F)c1F)c1ccc(OCCOC)cn1 [(R)-N-((4-((1H-imidazol-4-yl)methoxy)phenyl)sulfonyl)-2,3-difluoro-4-(1-(5-(2-methoxyethoxy)pyridin-2-yl)propoxy)benzamide]
22 | < 100 | < 100 | CC[C@@H](Oc1ccc(C(=O)NS(=O)(=O)N2CCN(CC3CC3)CC2)c(F)c1F)c1ccc(Oc2ccccn2)cn1 [(R)-N-((4-(cyclopropylmethyl)piperazin-1-yl)sulfonyl)-2,3-difluoro-4-(1-(5-(pyridin-2-yloxy)pyridin-2-yl)propoxy)benzamide]
23 | < 100 | < 100 | CC[C@@H](Oc1ccc(C(=O)NS(=O)(=O)N2CCN(C3CCC3)CC2)c(F)c1F)c1ccc(Oc2ccccn2)cn1 [(R)-N-((4-cyclobutylpiperazin-1-yl)sulfonyl)-2,3-difluoro-4-(1-(5-(pyridin-2-yloxy)pyridin-2-yl)propoxy)benzamide]
24 | < 100 | < 100 | CC[C@@H](Oc1ccc(C(=O)NS(=O)(=O)N2CCN(C3CCC3)CC2)c(F)c1F)c1ccc(OCC2CC2)cn1 [(R)-N-((4-cyclobutylpiperazin-1-yl)sulfonyl)-4-(1-(5-(cyclopropylmethoxy)pyridin-2-yl)propoxy)-2,3-difluorobenzamide]
25 | < 100 | 100 to 500 | CC[C@@H](Oc1ccc(C(=O)NS(=O)(=O)N2CCN(C3CCCCC3)CC2)c(F)c1F)c1ccc(Oc2ccccn2)cn1 [(R)-N-((4-cyclohexylpiperazin-1-yl)sulfonyl)-2,3-difluoro-4-(1-(5-(pyridin-2-yloxy)pyridin-2-yl)propoxy)benzamide]
26 | < 100 | > 500 | CC[C@@H](Oc1ccc(C(=O)NS(=O)(=O)N2CCN(C3CCCCC3)CC2)c(F)c1F)c1ccc(OCC2CC2)cn1 [(R)-N-((4-cyclohexylpiperazin-1-yl)sulfonyl)-4-(1-(5-(cyclopropylmethoxy)pyridin-2-yl)propoxy)-2,3-difluorobenzamide]
27 | < 100 | 100 to 500 | CC[C@@H](Oc1ccc(C(=O)NS(=O)(=O)N2CCN(C3CCCC3)CC2)c(F)c1F)c1ccc(Oc2ccccn2)cn1 [(R)-N-((4-cyclopentylpiperazin-1-yl)sulfonyl)-2,3-difluoro-4-(1-(5-(pyridin-2-yloxy)pyridin-2-yl)propoxy)benzamide]
